{"source": "patent US20030091533A1", "about": "“Regulation of mononuclear phagocyte stimulation” (priority 2001, published 2003)", "key": {"ERK½": {"system": "ERK½", "experiment": "ERK½ MAP kinase phosphorylation immunoblot in PBM", "assay_type": "cell-based, human", "conditions": "pretreatment before LPS 1 μg/ml; IL-9 20 ng/ml 24 hour; PD98059 1 hour", "description": "PBM, isolated as described infra, were treated with 100 !M PD98059 (or with the same volume of DMSO as control) 1 hour before preincubation for 24 hour with medium or IL-9 (20 ng/ml). For the phosphoERK immunoblot assay (A), PBM were then stimulated by LPS (1 μg/ml) for the indicated periods of time (5 min to 20 hours) as compared to unstimulated cells (med), and processed for the detection of phosphorylated and total ERK½ as described in infra. For the oxidative burst (B), PBM were stimulated by LPS (1 μg/ml) for 20 hour and their oxidative capacity was evaluated through DCFH oxidation The results are presented in FIG. 7.\nPBM were preincubated for 24 hour with medium alone (med) or IL-9, IL-4 or TGF-β1 (20 ng/ml), and stimulated by LPS (1 μg/ml) for the indicated periods of time (30 to 240 min). […]\nPBM (1×10^6) were preincubated for 24 hour with medium alone or with cytokines (IL-9, IL-4 or TGF-β1 at 20 ng/ml) and stimulated from 5 min to 20 hour by 1 μg/ml LPS. […] Cell extracts (10 μg, as determined by the bicinchoninic acid-based assay) were subjected to SDS-12%PAGE, and electrotransferred onto a nitrocellulose membrane (Amersham) immunoblotted to detect and compare phosphorylated (threonine^202/tyrosine^204 residues) and total ERK½, using specific antibodies and enhanced chemiluminescence (New England Biolabs). […]"}, "LPS-stimulated PBM [1]": {"system": "LPS-stimulated PBM", "experiment": "Intracellular oxidative burst, DCFH oxidation assay, PBM", "assay_type": "cell-based, human", "description": "Intracellular oxidative capacity was assessed essentially as described by Bass et al., J. Immunol., 130:1910-1917 (1983) (incorporated herein by reference) as described infra.\nCells (0.2×10^6) were preincubated for 24 hour with IL-9 or IL-4 (20 ng/ml) in the presence of IFN-γ (200 U/ml) before stimulation for 20 hour with LPS (1 μg/ml). The intracellular oxidative capacity was measured through the DCFH oxidation assay as describe herein. FIG. 3 depicts the effect of IFN-γ on the inhibition mediated by IL-9 and IL-4 on the oxidative burst in LPS-stimulated PBM (A) and AM (B).\nTable 1. Specific blockade of the IL-9 inhibitory effect on oxidative burst in LPS-15 stimulated PBM and AM by anti-hIL-9R mAb. Cells (0.2×10^6) were preincubated with neutralizing mAb against hIL-9R (AH9R7, 10 μg/ml), or with control mIgG2b (10 μg/ml), 1 hour before incubation with IL-9 (20 ng/ml) for 24 hour without removing mAb, and stimulated by LPS (1 μg/ml) for 20 h. Intracellular oxidative capacity was evaluated by the DCFH oxidation assay. Data are means±SEM obtained from three experiments, triplicate conditions being performed in each experiment. *P<0.001 compared with cells preincubated with IL-9 (with or without control mIgG2b).\nCells (0.2×10^6) were preincubated with neutralizing mAb, either against TGF-β1 (30 μg/ml) or against IL-10Rβ (30 μg/ml) or with control mIgG1 (30 μg/ml), 2 hour before incubation with IL-9 (20 ng/ml) for 24 hour without removing the mAb, and stimulated with LPS (1 μg/ml) for 20 h. Intracellular oxidative capacity was evaluated by the DCFH oxidation assay.\nIntracellular oxidative capacity was assessed as described by Bass et al., (Bass et al., J. Immunol. 130:1910-1917 (1983)). Briefly, the PBM and AM samples were distributed in 96-well plates with flat bottoms (Falcon) to provide 0.2×10^6cells/well. The cells were preincubated for 24 hour at 37° C., 5% CO2 with cytokines (200 u/ml for IFN-y, 20 ng/ml for IL-9 and 20 ng/ml; for IL-4) in cRPMI before being stimulated for 20 hours with LPS (1 μg/ml) without removing the cytokines. At the end of incubation with cytokines and/or LPS, cells were loaded for 15 min with 15 μM DCFH-DA in cRPMI which, after passive penetration into cells, is hydrolyzed into nonfluorescent polar DCFH and trapped inside the cells. DCFH is then oxidized into highly fluorescent DCF according to the intracellular amount of hydrogen peroxide (H2O2) produced by the respiratory burst. After three washings with phosphate-buffered saline (PBS, pH 7.4), cells were lysed in 0.1% v/v Triton X100 (Sigma) in PBS, and fluorescence was quantified in a computerized microplate spectrofluorimeter (Packard Instruments, Downers Grove, Ill., USA) at 485 nm excitation/530 nm emission wavelengths. DCF concentrations were deduced from a standard curve of known concentrations of fluorescent DCF (ranging from 0.08 to 10 μM in lysis buffer) Results were corrected for total protein concentration determined in cell lysates by the bicinchoninic acid-based method (Pierce, Rockford, Ill., USA), and were expressed as nmoles DCF/mg cell protein."}, "surface of PBM and AM": {"system": "surface of PBM and AM", "experiment": "IL-9 binding assay with hIL-9-mIgG3 chimeric molecule by FACS", "parameters": "species or system human", "conditions": "revealed by GAM3-FITC, compared with control", "description": "To assess the IL-9 binding by PBM and AM, cells (0.2×10^6) were incubated with hIL-9-nIlgG3 chimeric protein and binding was assayed with GAM3-FITC. FIG. 4 is representative of five and three experiments for respectively IL-9R expression and IL-9 binding.\nBinding of IL-9 to the surface of PBM and AM was assessed by incubating these cells (0.2×10^6) at 4° C. for 1 hour with hIL-9-mIgG3 chimeric molecule (10% COS cell supernatant). […] Cells incubated with mIgG3 before GAM3-FITC served as the negative control. FACS analysis of the cell-associated fluorescence was then performed as for the assessment of IL-9R expression.\nBinding of IL-9 to the surface of PBM and AM was assessed by incubating these cells (0.2×10^6) at 4° C. for 1 hour with hIL-9-mIgG3 chimeric molecule (10%, v/v, COS cell supernatant). […] Cells incubated with mIgG3 before GAM3-FITC or only with GAM3-FITC served as negative controls. FACS analysis of the cell-associated fluorescence was then performed as for the assessment of IL-9R expression."}, "LPS-stimulated PBM [2]": {"system": "LPS-stimulated PBM", "experiment": "Intracellular oxidative burst, DCFH oxidation assay, PBM", "assay_type": "cell-based, human", "conditions": "PMA as stimulus, preliminary experiments"}, "PMA-stimulated PBM": {"system": "PMA-stimulated PBM", "experiment": "Extracellular O2- release, SOD-inhibitable reduction of ferricytochrome c", "assay_type": "cell-based, human", "conditions": "PMA as stimulus, preliminary experiments", "description": "Extracellular release of O2-derived radicals was evaluated by the SOD-inhibitable reduction of ferricytochrome c, as previously described (Pick, Methods in Enzymology, 132:407-421 (1986)) as described infra.\nExtracellular release of O2-derived radicals was evaluated by the SOD-inhibitable reduction of ferricytochrome c, as previously described (Pick, Methods in Enzymology, 132:407-421 (1986)). Briefly, after incubation with IL-9 and IL-4 (20 ng/ml) for 1 hour, 4 hour 24 hour and 96 hour, cells were washed three times in Hank's balanced salt solution without phenol red (HBSS) to remove the phenol red-containing medium and incubated at 37° C. with HBSS containing 160 μM ferricytochrome c (plus 300 IU/ml SOD as control for each condition), and concomittantly with 100 ng/ml PMA when indicated. Optical density (OD) at 550 nm was then recorded in a plate spectrometer (Titertek Multiscan Plus MKII, Labsystems, Finland) after 60 min. The released amount of superoxide anion (O2^−) was deduced from the absorbance values at 550 nm (after subtraction of control values with SOD) using the cytochrome c extinction coefficient of 21×10^3 M^−1 cm^−1 (See Massey, Biochim Biophys Acta, 34: 255(1959)). Results were expressed as nmoles O2^− per 10^6 cells per hour (FIG. 1)."}}, "data": [{"molecule": "COc1cccc(-c2cc(=O)c3ccccc3o2)c1N", "note": "[PD98059, reference compound]", "values": [{"measurement": "LPS-induced ERK½ phosphorylation in PBM", "setting": "ERK½", "value": "prevented"}, {"measurement": "effect on LPS-stimulated ROI production (oxidative burst) in monocytes", "setting": "LPS-stimulated PBM [1]; PD98059 1 hour before preincubation, LPS 20 hour, DCFH oxidation", "value": "completely suppressed"}]}, {"molecule": "IL-9-mIgG3: human IL-9 fused to hinge, CH2 and CH3 domains of murine IgG3 heavy chain, COS cell supernatant", "values": [{"measurement": "binding of IL-9 on the surface of AM", "setting": "surface of PBM and AM", "value": "significant binding"}, {"measurement": "binding of IL-9 on the surface of PBM", "setting": "surface of PBM and AM", "value": "significant binding"}]}, {"molecule": "CCCCCCCCCCCCCC(=O)O[C@@H]1[C@@H](C)[C@@]2(O)[C@@H](C=C(CO)C[C@]3(O)C(=O)C(C)=C[C@@H]23)[C@@H]2C(C)(C)[C@]12OC(C)=O", "note": "[PMA, phorbol myristate acetate, reference compound]", "values": [{"measurement": "DCFH oxidation by PBM", "setting": "LPS-stimulated PBM [2]", "value": "only a minor effect"}, {"measurement": "cytochrome c reduction by PBM", "setting": "PMA-stimulated PBM", "value": "strongly stimulated"}]}, {"molecule": "TGF-β1: monocyte/macrophage deactivating factor, 20 ng/ml", "values": [{"measurement": "Oxidative burst (nmoles DCF/mg protein)", "setting": "LPS-stimulated PBM [1]; Table 3, PBM, mAb 30 μg/ml 2 hour before IL-9 20 ng/ml 24 hour, LPS 1 μg/ml 20 h, means±SD, Medium 10.3 ± 0.2", "value": "10.2 ± 0.5", "unit": "nmoles DCF/mg protein"}, {"measurement": "LPS-stimulated oxidative burst in PBM", "setting": "LPS-stimulated PBM [1]; preincubation 24 hour with cytokine 20 ng/ml, then LPS 1 μg/ml 20 hour, without IFN-γ", "value": "10.2±0.5", "unit": "nmoles DCF/mg protein"}]}]}
